Laboratory results from patent US6080790A, “Tri-substituted phenyl derivatives and processes for their preparations” (priority 1992, dated 2000).
Structures can show the parent of a compound that is named as a salt.

How the values were obtained:
[1] = tested on: PDE IV, HL60 cells; experiment: Isolated enzyme, inhibition of PDE IV from HL60 cells; assay type: biochemical; conditions: 0.1 μM [3H]-cAMP, pH 7.5, 30° C.; "Ki PDEIV HL60 at 1 μM"; read-out: approximate Ki value (PDE IV HL60)
Protocol: 1. Isolated Enzyme The potency and selectivity of the compounds of the invention was determined using a battery of distinct PDE isoenzymes as follows: iv. PDE IV, HL60 cells. The enzymes were purified to kinetic homogeneity using standard chromatographic techniques. Phosphodiesterase activity was assayed as follows. The reaction was conducted in 150 μl of standard mixture containing (final concentrations): 50 mM TES-NaOH buffer (pH 7.5), 10 mM MgCl2, 0.1 μM [^3 H]-cAMP and vehicle or various concentrations of the test compounds. The reaction was initiated by addition of enzyme and conducted at 30° C. for between 5 to 30 mins. […] An aliquot of the sample was then applied to a column of neutral alumina and the […] eluted with 10 ml 0.1 TES-NaOH buffer (pH8). […] Recovery of [3H]-5'AMP was determined using the [^14 C]-5'AMP and all assays were conducted in the linear range of the reaction.

[2] = tested on: right atrial muscle; conditions: reference substances, general statement; cited from earlier work
[3] = tested on: papillary muscle; conditions: reference substances, general statement; cited from earlier work
[4] = used in asthma as a bronchodilator; cited from earlier work

SMILES	Ki [1]	direct chronotropic effect (reference PDE inhibitors) [2]	direct inotropic effect (reference PDE inhibitors) [3]	further results
COc1ccc(-c2cncc3ccccc23)cc1OC1CCCC1 [Example 2, 4-(3-Cyclopentyloxy-4-methoxyphenyl)isoquinoline]	~180 nM	–	–	–
COc1ccc(-c2cccnc2)cc1OC1CCCC1 [Example 4, 3-(3-Cyclopentyloxy-4-methoxyphenyl)pyridine hydrochloride]	~270 nM	–	–	–
COc1ccc(-c2cccc([N+](=O)[O-])c2)cc1OC1CCCC1 [Example 7, 2-Cyclopentyloxy-4-(3-nitrophenyl)anisole]	~250 nM	–	–	–
Cc1[nH]c(=O)c(C#N)cc1-c1ccncc1 [milrinone]	–	positive chronotropic and inotropic effects	positive chronotropic and inotropic effects	–
COc1ccc(C2CNC(=O)C2)cc1OC1CCCC1 (centres unmarked) [rolipram]	–	do not have any direct effects	do not have any direct effects	–
Cn1c(=O)c2[nH]cnc2n(C)c1=O [theophylline]	–	–	–	cardiovascular changes [4]: significant cardiovascular changes such as tachycardia
